# No end group written: not given here.
# Experiments:
# Type 2 diabetic patients = details: cited from earlier work; for fasting hyperglycaemia: doses elevating plasma concentrations to approximately 3-4 fold physiological postprandial levels, Type 2 diabetic patients
# db/db mice [1] = assay: Fed blood glucose during treatment of db/db mice; type: in vivo, mouse; details: s.c. once daily (AVE0010 0.05, FGF-21 0.75, combination 0.75+0.05 mg·kg−1·day−1), up to 4 weeks, FIG. 6
# Procedure: (§1) Female db/db mice (BKS.Cg-m +/+ Leprdb/J, age of 6 weeks) were treated with vehicle (PBS), 0.05 mg·kg^−1·day^−1 AVE0010, 0.75 mg·kg^−1·day^−1 recombinant human FGF-21 (SEQ ID NO: 2) or a combined dose of FGF-21 (SEQ ID NO: 2) and AVE0010 (SEQ ID NO:9), (0.75+0.05 mg·kg^−1·day^−1) subcutaneously once daily. Mice were fed ad libitum. Before the first treatment, after one week and 4 weeks blood glucose and HbA1c were measured under fed conditions. After 21 days of treatment an oral glucose tolerance test (OGTT) was initiated. Fasted mice were orally challenged with 2 g·kg^−1 glucose solution and blood glucose was measured at indicated time points.
# db/db mice [2] = assay: Oral glucose tolerance test (OGTT) in treated db/db mice; type: in vivo, mouse; details: after 21 days s.c. once daily (AVE0010 0.05, FGF-21 0.75, combination 0.75+0.05 mg·kg−1·day−1), fasted, 2 g·kg−1 oral glucose, vs vehicle treated obese control, FIG. 5
# Procedure: as §1
# [3] = human subjects with Type 2 diabetes
substance,measurement,setting,value
"GLP-1: gut peptide glucagon-like peptide-1, an incretin hormone (HAEGTFTSDVSSYLEGQAAKEFIAWLVKGR; ends and bridges not checked; UniProt P01275 98-127, looked up)",blood glucose,Type 2 diabetic patients; [3],reduces
same,insulin secretion,Type 2 diabetic patients; [3],stimulates
"AVE0010: GLP-1R agonist peptide, amino acid sequence SEQ ID NO: 9 [reference compound]",blood glucose,db/db mice [1],inhibition of blood glucose increase
same,glucose tolerance (OGTT),db/db mice [2],small improvement in glucose tolerance
"GLP-1(7-27): bioactive GLP-1 form as printed in b13 (HAEGTFTSDVSSYLEGQAAKE; Glucagon-like peptide 1; UniProt P01275 98-118, looked up, fragment)",fasting hyperglycaemia,Type 2 diabetic patients,fully normalizes
"GLP-1(7-36 amide): bioactive GLP-1, amino acid sequence SEQ ID NO: 4 (HAEGTFTSDVSSYLEGQAAKEFIAWLVKGR-NH2)",fasting hyperglycaemia,Type 2 diabetic patients,fully normalizes

# — patent US20160279199A1, “PHARMACEUTICAL COMPOSITION FOR TREATING A METABOLIC SYNDROME” (Sanofi, priority 2010, published 2016)
